Assay results as given in article PMC11659602, “Discovering covalent cyclic peptide inhibitors of peptidyl arginine deiminase 4 (PADI4) using mRNA-display with a genetically encoded electrophilic warhead” (Communications Chemistry, 2024).
Values joined by “and” are separate entries in the source; they are usually repeats but may differ in a detail not shown here. Identical values can stand only once. Where a SMILES comes first, the peptide text is derived from it. Bridges are numbered along the chain shown (N, C = ends). [ ]: non-standard residue; d: D form. Orn(fluoroacetimidoyl) = N=C(CF)NCCC[C@H](N)C(=O)O

Legend:
Assay in all cases: Incubation time-dependent COLDER assay, selectivity
Format in all cases: biochemical
PADI3 = molecular target: T1, PADI3 (Homo sapiens, UniProt Q9ULW8); details: for selectivity for PADI4 over PADI3: COLDER; for PADI3 activity, normalised (Figure S11c): same values as column 60 of Figure S11b; for PADI3 activity normalised to 0.1% DMSO: quenched after 60 mins
T1 construct: PADI3 (residue 1-664); made in house; host or cells: E. coli NiCo21(DE3)
T1 sequence (Q9ULW8 1-664): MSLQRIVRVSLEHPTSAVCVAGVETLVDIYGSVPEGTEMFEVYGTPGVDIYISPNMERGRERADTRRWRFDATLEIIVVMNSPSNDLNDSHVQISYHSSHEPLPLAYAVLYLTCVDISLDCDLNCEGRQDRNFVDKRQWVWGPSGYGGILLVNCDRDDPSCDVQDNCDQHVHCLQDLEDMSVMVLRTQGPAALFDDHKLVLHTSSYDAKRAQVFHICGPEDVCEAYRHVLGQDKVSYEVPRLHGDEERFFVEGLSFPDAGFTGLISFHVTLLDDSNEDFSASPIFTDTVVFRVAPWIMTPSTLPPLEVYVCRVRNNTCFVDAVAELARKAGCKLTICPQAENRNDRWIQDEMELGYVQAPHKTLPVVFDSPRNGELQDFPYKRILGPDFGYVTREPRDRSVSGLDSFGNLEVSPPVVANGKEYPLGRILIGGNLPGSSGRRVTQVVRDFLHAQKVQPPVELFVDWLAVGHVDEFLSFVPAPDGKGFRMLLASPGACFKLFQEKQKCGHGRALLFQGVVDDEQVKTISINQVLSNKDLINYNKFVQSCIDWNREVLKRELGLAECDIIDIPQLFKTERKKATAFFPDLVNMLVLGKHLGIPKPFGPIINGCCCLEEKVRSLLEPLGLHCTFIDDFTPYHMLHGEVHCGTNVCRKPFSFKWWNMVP
Method: (§1) To determine KI and kinact of covalent peptide inhibitors, COLDER assays were used[52]. Peptide dilutions were prepared using 5-fold dilutions from 500 µM and 300 µM to 0.8 µM and 2.4 µM, respectively, at 1% DMSO in COLDER buffer (50 mM HEPES, 150 mM NaCl and 2 mM DTT, pH 7.5). The 9 peptide dilutions were added to a 96-well plate, alongside a 1% DMSO control. An equal volume of 10 mM BAEE was added to each well and the solution was homogenised by pipette mixing. This was mixed with 50 nM His-PADI4, 0.6 mg/mL BSA and 10 mM CaCl2, in COLDER buffer, to bring the final volume to 300 µL in each well. Alternatively, His-PAD1 (100 nM) /His-PADI2 (100 nM) /His-PADI3 (250 nM) were used. For assays with PADI1 and PADI3, 10 mM N^α-benzoyl-L-arginine methyl […] (BAME) was used as the substrate instead of BAEE[48],[58],[59]. At 15-minute intervals, for 5 timepoints, 50 µL of solution was taken from each well and quenched with 10 µL EDTA (300 mM). 200 µL of COLDER solution containing 20 mM diacetyl monoxime/2,3-butanedione monoxime (Merck), 0.5 mM thiosemicarbazide (Acros Organics), 2.25 M H3PO4, 4.5 M H2SO4 and 1.5 mM NH4Fe(SO4)2.12H2O was added to each well. Samples were incubated for 20 min at 95 °C before measuring absorbance at 540 nm on a CLARIOstar Plus (BMG LABTECH). IC50 values for each time point were determined using non-linear regression with GraphPad Prism. Incubation time–dependent potency IC50(t) against incubation time was fitted to the Krippendorff equation (below) to determine KI and kinact using a Python script[53],[59]. […] IC50t=KI1+S/KM⋅2−2e^−ηIC50⋅kinact⋅t/ηIC50⋅kinact⋅t−1 WhereηIC50=IC50t/KI1+S/KM+IC50t

PADI2 = molecular target: T2, PADI2 (Homo sapiens, UniProt Q9Y2J8); details: for PADI2 activity normalised to 0.1% DMSO: quenched after 60 mins
T2 construct: His6; made in house
T2 sequence (Q9Y2J8 whole entry, species assumed): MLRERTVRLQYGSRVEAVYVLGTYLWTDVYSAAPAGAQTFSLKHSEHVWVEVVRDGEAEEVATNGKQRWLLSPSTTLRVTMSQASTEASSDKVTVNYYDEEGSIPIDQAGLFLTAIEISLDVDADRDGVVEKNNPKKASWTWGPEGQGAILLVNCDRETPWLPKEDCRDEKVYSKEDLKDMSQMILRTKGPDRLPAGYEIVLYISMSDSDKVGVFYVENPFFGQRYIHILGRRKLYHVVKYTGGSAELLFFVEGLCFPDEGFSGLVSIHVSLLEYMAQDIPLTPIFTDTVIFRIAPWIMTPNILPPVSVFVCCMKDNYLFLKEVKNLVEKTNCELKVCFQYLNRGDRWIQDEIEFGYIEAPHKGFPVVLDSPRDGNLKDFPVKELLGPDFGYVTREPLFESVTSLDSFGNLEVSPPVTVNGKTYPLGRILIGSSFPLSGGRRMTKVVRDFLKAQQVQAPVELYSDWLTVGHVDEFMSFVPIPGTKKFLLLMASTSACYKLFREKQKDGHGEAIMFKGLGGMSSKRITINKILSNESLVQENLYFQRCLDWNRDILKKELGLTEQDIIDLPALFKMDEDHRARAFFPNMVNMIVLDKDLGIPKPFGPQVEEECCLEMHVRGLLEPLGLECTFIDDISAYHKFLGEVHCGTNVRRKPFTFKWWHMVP
Method: as §1

PADI1 = molecular target: T3, PADI1 (Homo sapiens, UniProt Q9ULC6); details: for PADI1 activity normalised to 0.1% DMSO: quenched after 60 mins
T3 construct: human PADI1 (residue 1-663); made in house; host or cells: E. coli NiCo21(DE3)
T3 sequence (Q9ULC6 1-663): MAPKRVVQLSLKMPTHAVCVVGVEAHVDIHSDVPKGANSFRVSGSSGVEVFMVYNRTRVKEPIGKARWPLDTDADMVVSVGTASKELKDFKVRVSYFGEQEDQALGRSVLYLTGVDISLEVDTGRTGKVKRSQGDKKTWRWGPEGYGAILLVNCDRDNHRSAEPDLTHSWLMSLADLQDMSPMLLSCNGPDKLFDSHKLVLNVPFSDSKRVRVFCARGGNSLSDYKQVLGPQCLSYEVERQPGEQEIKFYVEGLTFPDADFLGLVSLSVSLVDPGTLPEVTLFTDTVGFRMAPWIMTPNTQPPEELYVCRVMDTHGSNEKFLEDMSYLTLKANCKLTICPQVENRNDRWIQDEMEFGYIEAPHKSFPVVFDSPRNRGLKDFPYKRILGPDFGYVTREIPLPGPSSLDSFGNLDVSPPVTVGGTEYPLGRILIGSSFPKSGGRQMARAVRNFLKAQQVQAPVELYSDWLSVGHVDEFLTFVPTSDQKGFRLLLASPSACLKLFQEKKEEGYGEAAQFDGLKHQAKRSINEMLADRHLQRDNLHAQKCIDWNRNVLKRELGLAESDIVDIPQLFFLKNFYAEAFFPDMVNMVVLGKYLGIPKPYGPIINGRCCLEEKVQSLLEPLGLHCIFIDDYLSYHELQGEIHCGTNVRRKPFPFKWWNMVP
Method: as §1

N=C(N)NCCC[C@@H]1NC(=O)[C@H](CCCNC(=N)CF)NC(=O)[C@H](CC(=O)O)NC(=O)[C@H](Cc2ccc(O)cc2)NC(=O)[C@H](CCCCN)NC(=O)[C@H](CO)NC(=O)[C@@H](Cc2ccc(O)cc2)NC(=O)CSC[C@@H](C(=O)NCC(N)=O)NC(=O)[C@H](CC(=O)O)NC(=O)[C@H](CCCNC(=N)N)NC(=O)[C@@H]2CCCN2C(=O)[C@H](CO)NC1=O [cP4_4, ySKYD(2)RSPRDCG] ({CH2CO}-[dY]SKYD[Orn(fluoroacetimidoyl)]RSPRDCG-NH2; thioether N-12)
selectivity for PADI4 over PADI3 (PADI3): 8 fold
PADI3 activity, normalised (Figure S11c) (PADI3; cP4_4 0.08 µM): 98.438 and 99.5208 and 99.723
PADI3 activity, normalised (Figure S11c) (PADI3; cP4_4 0.24 µM): 84.0122 and 99.425 and 100.739
PADI3 activity, normalised (Figure S11c) (PADI3; cP4_4 0.4 µM): 91.6386 and 95.0168 and 95.5679
PADI3 activity, normalised (Figure S11c) (PADI3; cP4_4 1.2 µM): 73.8132 and 78.438 and 79.5014
PADI3 activity, normalised (Figure S11c) (PADI3; cP4_4 2 µM): 66.9219 and 70.5798
PADI3 activity, normalised (Figure S11c) (PADI3; cP4_4 6 µM): 34.487 and 31.5764 and 37.6731
PADI3 activity, normalised (Figure S11c) (PADI3; cP4_4 10 µM): 25.1148 and 25.0599 and 28.7165
PADI3 activity, normalised (Figure S11c) (PADI3; cP4_4 30 µM): 13.6294 and 7.139 and 10.988
PADI3 activity, normalised (Figure S11c) (PADI3; cP4_4 50 µM): 9.311 and 5.7978 and 6.279
PADI2 activity, normalised (Figure S11c) (PADI2; cP4_4 0.08 µM): 99.789 and 100
PADI2 activity, normalised (Figure S11c) (PADI2; cP4_4 0.24 µM): 95.7806 and 93.2203
PADI2 activity, normalised (Figure S11c) (PADI2; cP4_4 0.4 µM): 102.532 and 106.78
PADI2 activity, normalised (Figure S11c) (PADI2; cP4_4 1.2 µM): 102.954 and 112.106
PADI2 activity, normalised (Figure S11c) (PADI2; cP4_4 2 µM): 97.2574 and 108.91
PADI2 activity, normalised (Figure S11c) (PADI2; cP4_4 6 µM): 96.6245 and 106.586
PADI2 activity, normalised (Figure S11c) (PADI2; cP4_4 10 µM): 98.7342 and 104.552
PADI2 activity, normalised (Figure S11c) (PADI2; cP4_4 30 µM): 95.8861 and 92.155
PADI2 activity, normalised (Figure S11c) (PADI2; cP4_4 50 µM): 84.8101 and 93.6077
PADI1 activity, normalised (Figure S11c) (PADI1; cP4_4 0.08 µM): 100 and 102.598
PADI1 activity, normalised (Figure S11c) (PADI1; cP4_4 0.24 µM): 93.9237 and 90.941
PADI1 activity, normalised (Figure S11c) (PADI1; cP4_4 0.4 µM): 98.9277 and 105.899
PADI1 activity, normalised (Figure S11c) (PADI1; cP4_4 1.2 µM): 98.9873 and 104.073
PADI1 activity, normalised (Figure S11c) (PADI1; cP4_4 2 µM): 100.477 and 105.618
PADI1 activity, normalised (Figure S11c) (PADI1; cP4_4 6 µM): 94.7578 and 98.4551
PADI1 activity, normalised (Figure S11c) (PADI1; cP4_4 10 µM): 89.6942 and 96.559
PADI1 activity, normalised (Figure S11c) (PADI1; cP4_4 30 µM): 69.6188 and 76.5449
PADI1 activity, normalised (Figure S11c) (PADI1; cP4_4 50 µM): 54.4281 and 69.382

CC(C)C[C@@H]1NC(=O)[C@H](CCCCN)NC(=O)[C@H](CO)NC(=O)[C@H](CO)NC(=O)[C@H](Cc2ccc(O)cc2)NC(=O)[C@H](Cc2c[nH]cn2)NC(=O)[C@H](CCCNC(=N)CF)NC(=O)[C@H](CC(=O)O)NC(=O)[C@H](CC(C)C)NC(=O)[C@@H](Cc2ccc(O)cc2)NC(=O)CSC[C@@H](C(=O)NCC(N)=O)NC(=O)[C@H](Cc2ccc(O)cc2)NC1=O [cP4_15, yLD(2)HYSSKLYCG] ({CH2CO}-[dY]LD[Orn(fluoroacetimidoyl)]HYSSKLYCG-NH2; thioether N-12)
PADI3 activity normalised to 0.1% DMSO (PADI3; 0.08 µM): 106.942 and 103.941
PADI3 activity normalised to 0.1% DMSO (PADI3; 0.24 µM): 100.503 and 99.2995
PADI3 activity normalised to 0.1% DMSO (PADI3; 0.4 µM): 100.805 and 104.641
PADI3 activity normalised to 0.1% DMSO (PADI3; 1.2 µM): 98.1891 and 97.8109
PADI3 activity normalised to 0.1% DMSO (PADI3; 2 µM): 82.1932 and 92.0315
PADI3 activity normalised to 0.1% DMSO (PADI3; 6 µM): 75.5533 and 73.7303
PADI3 activity normalised to 0.1% DMSO (PADI3; 10 µM): 66.499 and 67.8634
PADI3 activity normalised to 0.1% DMSO (PADI3; 30 µM): 30.8853 and 30.3853
PADI3 activity normalised to 0.1% DMSO (PADI3; 50 µM): 18.8129 and 17.5131
IC50 (PADI3; 60-minute time point, no preincubation): ~40 µM
selectivity for PADI4 over PADI3 (PADI3): Approximately 45 fold
PADI2 activity normalised to 0.1% DMSO (PADI2; 0.08 µM): 102.409 and 98.7439
PADI2 activity normalised to 0.1% DMSO (PADI2; 0.24 µM): 101.533 and 89.4278
PADI2 activity normalised to 0.1% DMSO (PADI2; 0.4 µM): 100.438 and 90.9979
PADI2 activity normalised to 0.1% DMSO (PADI2; 1.2 µM): 102.409 and 98.4299
PADI2 activity normalised to 0.1% DMSO (PADI2; 2 µM): 106.46 and 98.5345
PADI2 activity normalised to 0.1% DMSO (PADI2; 6 µM): 102.299 and 92.9867
PADI2 activity normalised to 0.1% DMSO (PADI2; 10 µM): 102.956 and 100.105
PADI2 activity normalised to 0.1% DMSO (PADI2; 30 µM): 100.219 and 95.1849
PADI2 activity normalised to 0.1% DMSO (PADI2; 50 µM): 83.0292 and 85.4501
PADI1 activity normalised to 0.1% DMSO (PADI1; 0.08 µM): 100.799 and 102.269
PADI1 activity normalised to 0.1% DMSO (PADI1; 0.24 µM): 99.0011 and 78.928
PADI1 activity normalised to 0.1% DMSO (PADI1; 0.4 µM): 101.598 and 103.89
PADI1 activity normalised to 0.1% DMSO (PADI1; 1.2 µM): 101.532 and 99.3516
PADI1 activity normalised to 0.1% DMSO (PADI1; 2 µM): 105.527 and 101.88
PADI1 activity normalised to 0.1% DMSO (PADI1; 6 µM): 100.999 and 97.3417
PADI1 activity normalised to 0.1% DMSO (PADI1; 10 µM): 97.1365 and 102.594
PADI1 activity normalised to 0.1% DMSO (PADI1; 30 µM): 94.4062 and 95.3966
PADI1 activity normalised to 0.1% DMSO (PADI1; 50 µM): 83.818 and 84.4392
